Source: patent publication EP0725068A1 (TOKYO TANABE COMPANY LIMITED, priority 1993, dated 1995)
Where a name gives a salt, the structure may show the parent alone. Read-outs that look alike come from different tables or passages of the source.

Key:
colonic 5-HT3 receptors = target: T1, colonic 5-HT3 receptors (Cavia porcellus, UniProt O70212); experiment: Colonic 5-HT3 receptor antagonism: inhibition of 2-methylserotonin-induced contraction of isolated distal colon (Test 1); format: biochemical, guinea pigs; conditions: for M (×10^-9 Mole): molar antagonist concentration corresponding to pA2, guinea pig distal colon, 2-methylserotonin; for Kb: pA2, isolated guinea pig distal colon
T1 construct: the distal colons (3-10 cm from the anus) were isolated and suspended in a Magnus tube filled with Krebs solution; from tissue; host or cells: isolated distal colon of male Hartley guinea pig
T1 sequence (O70212 20-490): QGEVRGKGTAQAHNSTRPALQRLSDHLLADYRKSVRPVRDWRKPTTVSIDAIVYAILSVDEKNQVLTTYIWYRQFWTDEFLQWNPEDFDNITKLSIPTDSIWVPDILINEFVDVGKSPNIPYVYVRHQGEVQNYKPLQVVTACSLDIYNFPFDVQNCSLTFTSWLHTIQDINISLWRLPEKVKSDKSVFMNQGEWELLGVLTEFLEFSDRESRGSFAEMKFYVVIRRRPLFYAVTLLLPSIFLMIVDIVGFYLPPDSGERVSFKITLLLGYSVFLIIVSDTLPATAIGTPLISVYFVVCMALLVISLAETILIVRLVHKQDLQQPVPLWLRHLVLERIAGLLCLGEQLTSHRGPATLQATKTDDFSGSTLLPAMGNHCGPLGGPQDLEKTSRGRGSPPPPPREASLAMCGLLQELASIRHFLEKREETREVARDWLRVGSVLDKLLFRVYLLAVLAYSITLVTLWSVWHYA

stress-related diarrhea = conditions: animal models; J. Pharmacol. Exp. Ther. 261, 297 (1992); cited from earlier work
[1] = system: restraint stress-induced diarrhea; experiment: Inhibiting effect on restraint stress-induced diarrhea, oral administration (Test 3); format: in vivo, Wistar rats; conditions: for No. of animals with diarrhea / No. of animals used: feces observed 5 hours; for inhibition at 0.01 mg/kg: Rattus norvegicus, po, 1 h, read-out: Inhibition rate
Experimental: This test was conducted following the method of Miyata, et al. (The Journal of Pharmacology and Experimental Therapeutics Vol.261, No.1, 297 (1992)). Nine to ten-week-old male Wistar rats starved overnight were placed in stress cages and their feces produced in 5 hours were observed. Of 15 rats, 14 developed diarrhea. The test compounds were administered orally one hour prior to placement in the stress cage, and the rate of inhibition on diarrhea was measured.

cardiac 5-HT3 receptors = target: T2, cardiac 5-HT3 receptors (Rattus norvegicus, UniProt P35563); experiment: Antagonism against von Bezold-Jarisch reflex (BJ reflex): serotonin-induced reflexive bradycardia (Test 2); format: in vivo, SD rats; conditions: for ED50: rat, intravenous, 5 minutes prior to 30 µg/kg serotonin i.v., anesthetized male SD rats, read-out: ID50 (the source's name)
T2 construct: from tissue; host or cells: whole anaesthetised male SD rat (in vivo)
T2 sequence (P35563 24-483): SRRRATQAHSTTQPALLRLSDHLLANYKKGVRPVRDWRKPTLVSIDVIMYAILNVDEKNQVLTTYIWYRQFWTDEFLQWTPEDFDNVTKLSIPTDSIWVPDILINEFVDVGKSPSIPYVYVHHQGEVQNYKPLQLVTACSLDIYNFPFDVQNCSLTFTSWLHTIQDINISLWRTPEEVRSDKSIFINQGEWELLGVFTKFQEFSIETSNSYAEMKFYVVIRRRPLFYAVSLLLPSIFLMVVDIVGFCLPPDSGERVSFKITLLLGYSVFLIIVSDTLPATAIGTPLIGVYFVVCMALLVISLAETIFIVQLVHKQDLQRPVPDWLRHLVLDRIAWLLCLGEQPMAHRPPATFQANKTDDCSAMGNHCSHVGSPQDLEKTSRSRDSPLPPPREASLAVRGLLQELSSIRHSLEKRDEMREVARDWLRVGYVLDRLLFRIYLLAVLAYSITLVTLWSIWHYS
Experimental: This test was conducted following the method of Fozard, at al. (Arch. Pharmacology, 326, 36-44, 1984). Male SD rats with a body weight of around 300 g were anesthetized by intraabdominal administration of 1.25 g/kg urethane, and an intravenous injection cannula was inserted in the right femoral vein while a sphygmomanometric cannula was inserted into the left femoral artery. The pulse was determined by measuring the electrocardiogram R waves (secondary induction) with an instantaneous pulse rate meter. After confirming satisfactory reproducibility of the reflexive bradycardia induced by intravenous administration of 30 µg/kg serotonin, the test compounds were intravenously administered 5 minutes prior to serotonin administration, the inhibition rates with respect to the initial values were found and the 50% inhibition doses (ID50) were calculated.

[2] = contraction induced by 2-methylserotonin
[3] = 10μg/kg orally one hour prior to stress cage

| Structure (SMILES) | M (×10^-9 Mole) (colonic 5-HT3 receptors) | Kb (colonic 5-HT3 receptors; [2]) [µM] | also measured |
| --- | --- | --- | --- |
| Cl.Cn1cc(C(=O)[C@@H]2CCc3nc[nH]c3C2)c2ccccc21 [YM-060, (R)-(-)-5-[(1-methylindol-3-yl)carbonyl]-4,5,6,7-tetrahydrobenzimidazole hydrochloride] | 4.5 ×10^-9 Mole | 0.00398 | suppression of stress-related diarrhea (stress-related diarrhea): suppress stress-related diarrhea in animal models; No. of animals with diarrhea / No. of animals used [1, 3]: 7/10; inhibition at 0.01 mg/kg ([1]; 10μg/kg orally one hour prior to stress cage, inhibition of diarrhea): 30% |
| Cc1[nH]cnc1CN1CCc2c(c3ccccc3n2C)C1=O.Cl [Allosetron hydrochloride, 2,3,4,5-tetrahydro-5-methyl-2-[(5-methyl-1H-imidazol-4-yl)methyl]-1H-pyrido[4,3-b]indol-1-one hydrochloride] | 21 ×10^-9 Mole | 0.02 | ED50 (cardiac 5-HT3 receptors): 0.28 µg/kg |
| Cc1[nH]cnc1CN1CCCc2c(c3cccc4c3n2CCC4)C1=O [F, 11-[(5-methyl-1H-imidazol-4-yl)methyl]-5,6,9,10,11,12-hexahydro-4H,8H-azepino[3',4':4,5]pyrrolo[3,2,1-ij]quinolin-12-one] | >10 ×10^-9 Mole | > 0.01 | – |
| Cc1[nH]cnc1CN1CCc2c(c3cccc4c3n2C(c2ccccc2)CC4)C1=O.Cl (stereo not drawn) [Compound 1, 5,6,8,9,10,11-hexahydro-10-[(5-methyl-1H-imidazol-4-yl)methyl]-6-phenyl-11-oxo-4H-pyrido[3',4':4,5]pyrrolo[3,2,1-ij] quinoline hydrochloride] | 0.41 ×10^-9 Mole | 0.000398 | activity on the heart receptors relative to Ondansetron (cardiac 5-HT3 receptors; BJ reflex ID50 ratio, vs Ondansetron): about 4 times; activity on the heart receptors relative to YM-060 (cardiac 5-HT3 receptors; BJ reflex ID50 ratio, vs YM-060): about 1/19; ED50 (cardiac 5-HT3 receptors): 0.5 µg/kg; selectivity for colonic 5-HT3 receptors relative to Allosetron (colonic 5-HT3 receptors; from Tests 1 and 2 (colon vs heart), vs Allosetron): about 90 times; selectivity for colonic 5-HT3 receptors relative to Ondansetron (colonic 5-HT3 receptors; from Tests 1 and 2 (colon vs heart), vs Ondansetron): about 125 times; selectivity for colonic 5-HT3 receptors relative to YM-060 (colonic 5-HT3 receptors; from Tests 1 and 2 (colon vs heart), vs YM-060): about 190 times; selectivity for colonic 5-HT3 receptors relative to compound A (colonic 5-HT3 receptors; from Tests 1 and 2 (colon vs heart), vs compound A): about 100 times; No. of animals with diarrhea / No. of animals used [1, 3]: 5/10; inhibition at 0.01 mg/kg [1]: 50% |
| Cc1[nH]cnc1CN1CCc2c(c3cccc4c3n2CCCC4)C1=O [E] | >10 ×10^-9 Mole | – | pA2 (colonic 5-HT3 receptors; isolated guinea pig distal colon, contraction induced by 2-methylserotonin): <8.0 |
| O=C1c2c(n3c4c(cccc24)CCC3)CCN1C1CN2CCC1CC2 (stereo not drawn) [I, 10-(1-azabicyclo-[2,2,2]oct-3-yl)-5,6,8,9,10,11-hexahydro-4H-pyrido[3',4':4,5]pyrrolo[3,2,1-ij]quinolin-11-one] | >10 ×10^-9 Mole | > 0.01 | – |
| Cc1[nH]cnc1CN1CCc2c(c3cccc4c3n2CC4)C1=O [B, 4,5,7,8-tetrahydro-9-[(5-methyl-1H-imidazol-4-yl)methyl]-pyrido[4,3-b]pyrrolo[3,2,1-hi]indol-10(9H)-one] | 10 ×10^-9 Mole | > 0.01 | – |
| Cc1[nH]cnc1CN1CCCc2c(c3cccc4c3n2CC4)C1=O [D, 4,5,7,8,9,10-hexahydro-10-[(5-methyl-1H-imidazol-4-yl)methyl]-11H-azepino[4,3-b]pyrrolo[3,2,1-hi]indol-11-one] | >10 ×10^-9 Mole | > 0.01 | – |
| Cc1[nH]cnc1CN1CCc2c(c3cccc4c3n2CCC4)C1=O [A, 5,6,9,10-tetrahydro-10-[(5-methyl-1H-imidazol-4-yl)methyl]-4H-pyrido[3',4':4,5]pyrrolo[3,2,1-ij] quinolin-11(8H)-one] | 10 ×10^-9 Mole | 0.01 | ED50 (cardiac 5-HT3 receptors): 0.11 µg/kg; No. of animals with diarrhea / No. of animals used [1, 3]: 8/10; inhibition at 0.01 mg/kg [1]: 20% |
| CN1C2CCCC1CC(NC(=O)c1nn(C)c3ccccc13)C2 (stereo not drawn) [Granisetron, N-(endo-9-methyl-9-azabicyclo[3,3,1]non-3-yl)-1-methylindazol-3-carboxamide hydrochloride] | – | – | suppression of stress-related diarrhea (stress-related diarrhea): suppress stress-related diarrhea in animal models |
| Cc1[nH]cnc1CN1CCc2c(c3cccc4c3n2CCO4)C1=O [C, 1,2,9,10-tetrahydro-8-[(5-methyl-1H-imidazol-4-yl)methyl]pyrido[3',4':4,5]pyrrolo[1,2,3-de][1,4]benzoxadin-7(8H)-one] | >10 ×10^-9 Mole | > 0.01 | – |
| Cc1[nH]cnc1CN1CCc2c(c3cccc4c3n2-c2ccccc2CC4)C1=O [G, 3-[(4-methyl-1-H-imidazol-5-yl)methyl]-1,2,3,4,8,9-hexahydro-pyrido[4',3':2,3]indolo[1,7a,7-ab][1]benzazepin-4-one] | >10 ×10^-9 Mole | > 0.01 | – |
| CN1C2CCC1CC(N1CCc3c(c4cccc5c4n3CCC5)C1=O)C2 (stereo not drawn) [H] | >10 ×10^-9 Mole | > 0.01 | – |
| Cc1nccn1CC1CCc2c(c3ccccc3n2C)C1=O (stereo not drawn) [Ondansetron hydrochloride, 1,2,3,4-tetrahydro-9-methyl-3-[(2-methyl-1H-imidazol-1-yl)methyl]-4H-carbazol-4-one hydrochloride dihydrate] | 227 ×10^-9 Mole | 0.251 | ED50 (cardiac 5-HT3 receptors): 2 µg/kg; suppression of stress-related diarrhea (stress-related diarrhea): suppress stress-related diarrhea in animal models |
